Data taken from article PMC8400955 (Pharmaceuticals, 2021).
“Also recorded” adds a separate entry of the source. Read-outs that look alike come from different tables or passages of the source.

Legend:
CYP2E1 = CYP2E1 (Homo sapiens, UniProt P05181); assay: CYP phenotyping, recombinant CYP2E1
CYP3A4 = CYP3A4 (Homo sapiens, UniProt P08684); assay: CYP inhibition in human liver microsomes, CYP3A4; assay type: in vitro ADME; set-up: 2D6, and 3A4) in human liver microsomes (0.2 mg/mL) in the presence of NADPH; from tissue; host or cells: human liver microsomes; details: HLM
Description: . The inhibition of CYP2B6 and 3A4 (when midazolam was used as the substrate) by ZB716 was not observed. The inhibitory potential of ZB716 on human CYP enzyme activities appears relatively low.
The final concentrations of ZB716 in the incubation system were 0, 0.05, 0.15, 0.5, 1.5, 5, and 15 µM (final organic solvent concentration ≤ 1%). […] . […] The concentrations of the isoform-specific metabolites derived from marker substrates were measured by UPLC–MS/MS. The IC50 values were calculated from the percentages of the rate of the metabolite formation relative to non-inhibited controls vs. the concentrations of ZB716 or positive control inhibitors. All incubations were performed in triplicate. The mean of the enzyme activity (% of non-inhibited control) for each concentration was plotted against the log inhibitor concentration, and fitted to an IC50 curve.

[1] = 7-day repeated-dose PK in rats; assay type: in vivo, Sprague Dawley rats; details: rat, plasma
Description: Groups of Sprague Dawley rats (n = 5/sex/group; n = 3/sex/TK group) were orally administered ZB716 (20% PG, 5% Solutol, and 75% of 40% HP-β-CD in DI water) at dose levels of 10, 100, and 400 mg/kg/day for 7 days. […] Systemic exposure, expressed as Cmax and AUClast values, increased with dose in a less than dose-proportional manner on days 1 and 7 (Figure 2). A slight gender difference was observed; generally, systemic exposures were higher in females than in males (male/female AUClast ratio = 0.442:0.883). Accumulation was observed only in male animals given 400 mg/kg/day.
Four-to-six-week-old Sprague Dawley rats (Crl: CD (SD)) (SPF/VAF) were purchased from Beijing Vital River Laboratory Animal Technology, Co. Ltd.). Six-month-old beagle dogs were purchased from Beijing Marshall Biotechnology Co. Ltd. Animals were quarantined/acclimated for 2–6 weeks prior to dose initiation. Both Sprague Dawley rats and beagle dogs were given oral administration of ZB716 (20% PG, 5% Solutol, and 75% of 40% HP-β-CD in water) at different dose levels. After treatment with the test articles, whole blood was collected from each study animal by puncture of the tail vein (0.4 mL of whole blood from rats) and/or the peripheral vein (0.6 mL of whole blood from dogs) into tubes containing K2EDTA at each timepoint: pre-dose, and 0.5, 1, 2, 4, 8, and 24 h post-dose. The plasma samples were divided into 2 aliquots (approximately equal in volume) and stored frozen at −75 ± 15 °C within 2 h of the collection until analysis at Pharmaron, China.
The stock solution of ZB716 (5.0 mg/mL) and ZB716-d6 (1 mg/mL) in ACN:DI Water = 1:1 was prepared and stored at −20 ± 5 °C. The desired serial concentrations of working reference analyte solutions were achieved by diluting a stock analyte solution with 50% acetonitrile (0.1% formic acid) in water solution. The bioanalytical LC–MS/MS method was validated for quantitative determination of ZB716 in Sprague Dawley rat plasma and beagle dog plasma, with acceptable selectivity, sensitivity, calibration curve, precision, and accuracy. This method is applicable for the determination of ZB716 in Sprague Dawley rat plasma and beagle dog plasma, with a lower limit of quantification of 20.0 ng/mL, and an upper limit of quantification of 10,000 ng/mL.
Five microliters of diluted supernatant was injected into the LC–MS/MS system (Shimadzu LC30AD HPLC system with a SynergiTM 4 μm Fusion-RP 80 Å (50 × 2 mm) column using gradient elution and a Triple Quad 5500 mass spectrometer) for quantitative analysis. The mobile phases used were 0.1% formic acid in deionized water and 0.1% formic acid in acetonitrile. The pharmacokinetic parameters T1/2 (the biological half-life), Cmax (maximal concentration), Tmax (time at which Cmax is observed), and AUC (area under the plasma concentration–time curve) were calculated from the plasma concentration versus time data using WinNonlin (Phoenix^TM, version 8.1, Mountain View, CA, USA). All PK studies were conducted by Pharmaron in Beijing, China.

human hepatocytes = assay: Metabolic stability in human hepatocytes; assay type: in vitro ADME; details: 1 μM
Description: (§1) Hepatocytes of humans (#X008001), dogs (#M00205), rats (#M00005), and mice (#M005052) were purchased from BioIVT, NY, USA. Monkey hepatocytes were procured from RILD, Shanghai, China. The metabolic stability of ZB716 in human, monkey, dog, rat and mouse hepatocytes was investigated by incubating ZB716 with human, monkey, dog, rat, and mouse hepatocytes (0.5 × 10^6 cells/mL), or with incubation medium only.
(§2) parent disappearance vs. incubation time curve.
(§3) Scaled-up Clint = kV/N × Scaling Factor
(§4) metabolite formed during the reaction.

[2] = Metabolic stability in human hepatocytes; assay type: in vitro ADME
Description: as §1, §2, §3, §4

[3] = female, Sprague Dawley (Crl: CD (SD)), po, 400 mg/kg/day, day 1, PO 400 mg/kg/day, F
[4] = female, Sprague Dawley, po, 10 mg/kg/day, day 1, PO 10 mg/kg/day, F
[5] = female, Sprague Dawley, po, 10 mg/kg/day, day 7, PO 10 mg/kg/day, F
[6] = female, Sprague Dawley, po, 100 mg/kg/day, day 7, PO 100 mg/kg/day, F
[7] = female, Sprague Dawley, po, 400 mg/kg/day, day 7, PO 400 mg/kg/day, F
[8] = male, Sprague Dawley (Crl: CD (SD)), po, 10 mg/kg/day, day 7, PO 10 mg/kg/day, M
[9] = male, Sprague Dawley (Crl: CD (SD)), po, 400 mg/kg/day, day 1, PO 400 mg/kg/day, M
[10] = male, Sprague Dawley, po, 10 mg/kg/day, day 1, PO 10 mg/kg/day, M
[11] = male, Sprague Dawley, po, 100 mg/kg/day, day 1, PO 100 mg/kg/day, M
[12] = male, Sprague Dawley, po, 100 mg/kg/day, day 7, PO 100 mg/kg/day, M
[13] = male, Sprague Dawley, po, 400 mg/kg/day, day 7, PO 400 mg/kg/day, M

CYP3A4, sequence (P08684 whole entry): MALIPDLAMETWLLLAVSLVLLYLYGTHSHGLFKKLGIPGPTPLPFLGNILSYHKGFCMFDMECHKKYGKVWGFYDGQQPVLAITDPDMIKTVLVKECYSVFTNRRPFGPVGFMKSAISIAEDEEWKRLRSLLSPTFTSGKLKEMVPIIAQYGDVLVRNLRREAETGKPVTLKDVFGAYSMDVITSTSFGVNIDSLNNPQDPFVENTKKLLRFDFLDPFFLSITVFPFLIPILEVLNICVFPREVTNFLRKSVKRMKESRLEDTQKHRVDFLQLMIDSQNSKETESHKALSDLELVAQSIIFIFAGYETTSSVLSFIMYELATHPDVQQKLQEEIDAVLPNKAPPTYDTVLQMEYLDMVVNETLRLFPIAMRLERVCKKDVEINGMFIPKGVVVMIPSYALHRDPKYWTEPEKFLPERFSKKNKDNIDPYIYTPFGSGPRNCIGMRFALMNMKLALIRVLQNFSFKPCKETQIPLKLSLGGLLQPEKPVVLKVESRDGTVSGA
CYP2E1, sequence (P05181 whole entry): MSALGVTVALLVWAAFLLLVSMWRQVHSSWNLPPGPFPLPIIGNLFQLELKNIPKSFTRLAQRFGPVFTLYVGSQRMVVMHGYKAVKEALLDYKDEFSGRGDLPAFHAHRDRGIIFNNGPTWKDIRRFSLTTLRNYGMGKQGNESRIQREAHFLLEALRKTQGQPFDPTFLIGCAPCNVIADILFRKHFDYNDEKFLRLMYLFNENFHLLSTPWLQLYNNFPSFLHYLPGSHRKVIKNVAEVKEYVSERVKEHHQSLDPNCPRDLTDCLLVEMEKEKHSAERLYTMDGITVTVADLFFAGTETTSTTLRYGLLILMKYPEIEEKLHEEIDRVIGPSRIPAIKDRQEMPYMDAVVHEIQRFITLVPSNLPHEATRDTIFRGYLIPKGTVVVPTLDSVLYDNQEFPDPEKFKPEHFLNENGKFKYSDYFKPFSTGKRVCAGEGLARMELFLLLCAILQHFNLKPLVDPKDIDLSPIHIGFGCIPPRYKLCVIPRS

C[C@]12CC[C@@H]3c4ccc(B(O)O)cc4C[C@@H](CCCCCCCCC[S+]([O-])CCCC(F)(F)C(F)(F)F)[C@H]3[C@@H]1CC[C@@H]2O (stereo partly shown) [ZB716, fulvestrant-3-boronic acid]
half-life at 2 µM (CYP2E1; human): 19.4 ± 1.2 min
Clint (CYP2E1; recombinant CYP2E1, 2 µM ZB716): 0.716 ± 0.044 µL/min/pmol CYP
IC50 (CYP3A4; CYP3A4-M, marker substrate Midazolam): not observed; also recorded: No Inhibition
IC50 (CYP3A4; CYP3A4-T, marker substrate Testosterone, read-out: IC50): 11.2 µM
Tmax ([1]; both sexes, Sprague Dawley, oral, 100 mg/kg/day, 10 and 100 mg/kg/day, day 1 and day 7, mostly, read-out: Tmax): 30 to 60 min
Tmax ([1]; both sexes, Sprague Dawley, oral, 400 mg/kg/day, day 1 and day 7, read-out: Tmax): ≤ 480 min
AUC(0-t) ([1]; female, Sprague Dawley (Crl: CD (SD)), po, 100 mg/kg/day, day 1, PO 100 mg/kg/day, F): 26700 ng·h/mL
AUC(0-t) [1, 3]: 27900 ng·h/mL
Cmax [1, 3]: 2770 ng/mL
Tmax ([1]; female, Sprague Dawley (Crl: CD (SD)), po, 400 mg/kg/day, day 1, PO 400 mg/kg/day, F, read-out: Tmax (median)): 480 min
AUC(0-t) [1, 4]: 1760 ng·h/mL
Cmax [1, 4]: 459 ng/mL
Tmax ([1]; female, Sprague Dawley, po, 10 mg/kg/day, day 1, PO 10 mg/kg/day, F, read-out: Tmax (median)): 30 min
AUC(0-t) [1, 5]: 2820 ng·h/mL
Cmax [1, 5]: 710 ng/mL
Tmax ([1]; female, Sprague Dawley, po, 10 mg/kg/day, day 7, PO 10 mg/kg/day, F, read-out: Tmax (median)): 30 min
Cmax ([1]; female, Sprague Dawley, po, 100 mg/kg/day, day 1, PO 100 mg/kg/day, F): 3350 ng/mL
Tmax ([1]; female, Sprague Dawley, po, 100 mg/kg/day, day 1, PO 100 mg/kg/day, F, read-out: Tmax (median)): 60 min
AUC(0-t) [1, 6]: 20700 ng·h/mL
Cmax [1, 6]: 2750 ng/mL
Tmax ([1]; female, Sprague Dawley, po, 100 mg/kg/day, day 7, PO 100 mg/kg/day, F, read-out: Tmax (median)): 30 min
AUC(0-t) [1, 7]: 37100 ng·h/mL
Cmax [1, 7]: 3710 ng/mL
Tmax ([1]; female, Sprague Dawley, po, 400 mg/kg/day, day 7, PO 400 mg/kg/day, F, read-out: Tmax (median)): 30 min
AUC(0-t) [1, 8]: 2260 ng·h/mL
Cmax [1, 8]: 322 ng/mL
Tmax ([1]; male, Sprague Dawley (Crl: CD (SD)), po, 10 mg/kg/day, day 7, PO 10 mg/kg/day, M, read-out: Tmax (median)): 60 min
AUC(0-t) [1, 9]: 15200 ng·h/mL
Cmax [1, 9]: 1920 ng/mL
Tmax ([1]; male, Sprague Dawley (Crl: CD (SD)), po, 400 mg/kg/day, day 1, PO 400 mg/kg/day, M, read-out: Tmax (median)): 480 min
AUC(0-t) [1, 10]: 1320 ng·h/mL
Cmax [1, 10]: 365 ng/mL
Tmax ([1]; male, Sprague Dawley, po, 10 mg/kg/day, day 1, PO 10 mg/kg/day, M, read-out: Tmax (median)): 30 min
AUC(0-t) [1, 11]: 11800 ng·h/mL
Cmax [1, 11]: 1420 ng/mL
Tmax ([1]; male, Sprague Dawley, po, 100 mg/kg/day, day 1, PO 100 mg/kg/day, M, read-out: Tmax (median)): 30 min
AUC(0-t) [1, 12]: 12900 ng·h/mL
Cmax [1, 12]: 1610 ng/mL
Tmax ([1]; male, Sprague Dawley, po, 100 mg/kg/day, day 7, PO 100 mg/kg/day, M, read-out: Tmax (median)): 30 min
AUC(0-t) [1, 13]: 32700 ng·h/mL
Cmax [1, 13]: 2340 ng/mL
Tmax ([1]; male, Sprague Dawley, po, 400 mg/kg/day, day 7, PO 400 mg/kg/day, M, read-out: Tmax (median)): 480 min
Remaining at 120 min (human hepatocytes): 7.98 ± 0.7%
half-life at 1 μM ([2]; read-out: Estimated In Vitro t1/2): 34.9 ± 1 min
hepatocyte CLint at 1 μM ([2]; read-out: In Vitro Clint): 39.7 ± 1.1 µL/min/1e6 cells
CLint scaled at 1 μM ([2]; read-out: Scaled-Up Clint): 101 ± 3 mL/min/kg
